# Measurements from patent US20090098050A1, “CALCIUM BINDING PEPTIDES” (THE REGENTS OF THE UNVERSITY OF CALIFORNIA, priority 2005, published 2009).
# Assays:
# [1] = Tissue specific binding of DSS peptides and variants in human teeth (CLSM); conditions: 12.5 μM labeled peptide
# Experimental: FIG. 8: Fluorescence micrographs showing tissue specificity in the binding of DSS peptides and variants. Adult human teeth were exposed to 12.5 μM 5(6)-carboxyfluorescein-labeled peptide without demineralization, washed extensively, and imaged by CLSM. For each section, multiple scans were collected and assembled in an automated mode to generate panels of images representing an area of 13×13 mm, sufficient in most cases to encompass the whole section. The peptides used for each section are labeled beneath each panel, and within each panel the tooth is oriented with the root toward the top of the image and the crown toward the bottom. Tissue layers are labeled as follows: RTD=Root Tip Dentin; CPD=Circumpulpal Dentin; MD=Mantle Dentin; P=Pulp Cavity Wall; DEJ=Dentin-Enamel Junction; E=Enamel; BE=Basal Enamel; CE=Cortical Enamel; CL=Carious Lesion; PB=Periodontal Bone.
# In order to investigate the tissue specificity of DSS peptide binding to tooth tissue, sections of human teeth were exposed to DSS peptides and variants, then imaged by CLSM as described in Example 2. The peptides utilized for these experiments were 8DSS, 8ASS, 8DAA, 8NAA, 4DSS, 4ESS, 4NSS, 4DTT, 4ETT, 4NTT, and 6DSS. Sagittal sections of human teeth extracted during normal clinical practice were polished and then incubated for ten minutes in a solution of the appropriate 5(6) carboxyfluorescein-labeled peptide (12.5 μM) containing 10 mM NaCl and 50 mM HEPES, pH 7.0. Control samples were prepared without peptide. Samples were washed extensively after treatment and imaged by CLSM using blue laser illumination (λ=488 nm) and a FITC emission filter, with identical camera and microscope settings for each sample. For each section, multiple scans were collected and assembled in an automated mode to generate panels of images representing an area of 13×13 mm, sufficient in most cases to encompass the whole section. […] Significant binding was also seen to the edges of the pulp cavity.
# [2] = Remineralization of demineralized dentin surfaces with Quell Desensitizer (SEM); set-up: species or system human; conditions: 12.5 μM peptide one hour, then Quell Desensitizer 15 minutes
# Experimental: FIG. 4: Remineralization of tooth surfaces with DSS peptides. Extracted human teeth were sagitally sectioned and demineralized with 19% EDTA gel for 1 hour, followed by immersion in deionized water and ultrasonication to remove excess debris. Samples were treated as indicated, then imaged by Scanning Electron Microscopy. Scale bars=50 μm. A. Demineralized control samples. B. Treated with 8DSS for 1 hour, rinsed, and remineralized using Quell Desensitizer. C. Treated with buffer only, remineralized using Quell Desensitizer. D. No treatment, remineralized using Quell Desensitizer. Extracted human teeth were sagitally sectioned (Accutom-50, CA-231 diamond blade) and demineralized with 19% EthyleneDiaminoTetraAcetic acid (EDTA) gel for one hour, followed by immersion in deionized water and ultrasonication to remove excess debris. Samples were treated with 12.5 μM 8DSS peptide in 50 mM HEPES buffer (pH 7.0), buffer only (no peptide), or left untreated. After one hour, samples were remineralized for 15 minutes with Quell Desensitizer (Pentron technologies, LLC), a remineralization solution consisting of aqueous solutions of calcium chloride and potassium phosphate. Samples were rinsed thoroughly prior to imaging by scanning electron microscopy (SEM).
# [3] = Accumulation of calcium phosphate by immobilized peptide on streptavidin beads; conditions: biotin-conjugated peptide on beads, PBS+1 mM CaCl2+1 mM NaHPO4, twelve days
# Experimental: FIG. 3: Interaction of immobilized 8DSS peptide with CaHPO4. Streptavidin-coated polystyrene beads were incubated with biotin-conjugated 8DSS (A and C) or unconjugated biotin (B) and (D). Beads were washed and incubated in a solution of PBS+1 mM CaCl2+1 mM NaHPO4 for twelve days prior to imaging. A. Brightfield micrographs of aggregates of amorphous calcium phosphate that accumulated around DSS-coated beads. All calcium phosphate aggregates of significant size were associated with one or more beads. B. Brightfield image of representative biotin-blocked beads (no DSS peptide). No significant amount of precipitate was associated with these beads. C. Phase-contrast micrograph of a DSS-coated bead with a more ordered accretion of calcium phosphate around its exterior (note the spherical center of the object). These objects were not seen in control samples (biotin-blocked, no DSS peptide), as illustrated in (D). Scale Bars=4 μm. Streptavidin-coated polystyrene beads with an average diameter of 4 μm (Spherotech P.L.C.) were incubated with either biotin-conjugated 8DSS peptide or unconjugated biotin. Beads were washed with PBS to remove unbound peptide (or unbound biotin, in the case of the control beads) and incubated in a solution of PBS+1 mM CaCl2+1 mM NaHPO4 for twelve days prior to imaging. […] All calcium phosphate aggregates of significant size were associated with one or more beads. […]
substance,measurement,setting,value
"8DSS: peptide containing eight Asp-Ser-Ser (DSS) repeats, SEQ ID NO:15 (DSSDSSDSSDSSDSSDSSDSSDSS; calcium binding peptide containing eight DSS repeats, 8DSS)",Tissue binding pattern in healthy tooth section,[1]; nondemineralized teeth,bound primarily to the mantle dentin
same,Level of binding (staining) to tooth surfaces,"[1]; ten minutes, identical settings",greatest levels of staining
same,Mineral precipitate accumulation on demineralized dentin,[2],"accumulated a continuous layer of calcium phosphate precipitate, fully occluding the dentinal tubules"
same,Calcium phosphate accumulation around peptide-coated beads,[3],incorporated into large aggregates of precipitated amorphous calcium phosphate
